Where two headings read alike, the source gives them in different places. Values belong to the compound of their own block, whether it stands above or below them.
How the values were obtained:
[1] = co-administered strong CYP3A4 inducer rifampin; cited from earlier work
[2] = system: NSCLC with EGFR activating mutations; conditions: cited from earlier work
[3] = healthy volunteers, 150 mg dose, cited from earlier work
[4] = NSCLC patients who currently smoke; cited from earlier work
[5] = cited from earlier work
[6] = type: in vivo, human
[7] = system: CYP3A4; conditions: in vitro; cited from earlier work
[8] = system: FMO3; conditions: in vitro; cited from earlier work
[9] = previous studies with dovitinib; cited from earlier work
[10] = system: CYP1A2; conditions: caffeine as CYP1A2 substrate; cited from earlier work
[11] = cited from earlier work; remark: listed apart in the source
[12] = Plasma pharmacokinetics of dovitinib, phase I trial; type: in vivo; conditions: human, oral
[13] = post-dovitinib relative to pre-dovitinib

- AUC(0-t) ([6]; human, plasma, oral, 150 mg): 41000 ng·h/mL
- half-life ([6]; human, plasma, oral, 150 mg): 50 ± 53 h
- decrease in AUC0–24 during dovitinib co-administration ([6]; p < 0.01, six patients): 97%
- decrease in Cmax during dovitinib co-administration ([6]; p = 0.02, six patients): 93%
- AUC0–24h geometric mean ratio (D + E:E), mean [6, 13]: 0.03
- Cmax geometric mean ratio (D + E:E), mean [6, 13]: 0.07
- T1/2, terminal geometric mean ratio (D + E:E), mean [6, 13]: 0.10
SMILES: C#Cc1cccc(Nc2ncnc3cc(OCCOC)c(OCCOC)cc23)c1 [Erlotinib]
- decrease in AUC with rifampin [1]: 66%
- decrease in Cmax with rifampin [1]: 29%
- time to development of resistance in the majority of patients ([2]; NSCLC patients with EGFR activating mutations): less than 1 year
- response rates (RRs) ([2]; NSCLC patients with known EGFR activating mutations): 60–70%
- AUC ([3]; non-smokers): 18,726 ng × h/mL
- Cmax ([3]; nonsmokers): 1056 ng/mL
- decrease in AUC in smokers ([3]; smokers vs non-smokers): 64%
- decrease in Cmax in smokers ([3]; smokers vs nonsmokers): 35%
- AUC ([3]; smokers): 6718 ng·h/mL
- Cmax ([3]; smokers): 689 ng/mL
- steady-state trough concentration, fold lower compared to non-smokers [4]: 2 fold
- median half-life [5]: 36.2 h

- AUC0–24h ([6]; Erlotinib alone (E), Day 14 ± 4, normalized to erlotinib 150 mg dose, mean ± SD): 5381 ± 2982 ng·h/mL
- AUC0–24h geometric mean ratio (D + E:E), mean [6, 13]: 0.06
- Cmax geometric mean ratio (D + E:E), mean [6, 13]: 0.17
SMILES: C#Cc1cccc(Nc2ncnc3cc(OCCOC)c(OCCO)cc23)c1 [OSI-420]

- Tmax [12]: 6 h
- half-life [12]: 32 ± 19 h
SMILES: CN1CCN(c2ccc3nc(-c4c(N)c5c(F)cccc5[nH]c4=O)[nH]c3c2)CC1 [Dovitinib]
- share of metabolism by CYP3A4 [7]: 17–35%
- share of metabolism by FMO3 [8]: 65–83%
- decreased appetite, regardless of grade [9]: 37.0%
- diarrhea, regardless of grade [9]: 68%
- fatigue, regardless of grade [9]: 40.5%
- nausea, regardless of grade [9]: 66.7%
- vomiting, regardless of grade [9]: 60.6%
- reduction of the AUC of caffeine [10]: 96%
- effect of food on bioavailability [11]: food does not alter the bioavailability

— publication PMC4613811 (Lung cancer (Amsterdam, Netherlands), 2015)
